Assay results taken from US9855268B2, “Triazolo[4,5-d]pyrimidine derivatives” (Merck Patent GmbH, priority 2013, dated 2018).
Structures can show the parent of a compound that is named as a salt.

molecular target: GCN2 (Homo sapiens, UniProt Q9P2K8); test: GCN2 enzyme assay (TR-FRET Lanthascreen, GFP-eIF2alpha phosphorylation); format: biochemical; details: 10 μM ATP, 80 nM GFP-eIF2a, 30 nM GCN2
Excerpt: GCN2: Assay Principle & Conditions
This assay can quantificate the activity of the serin kinase GCN2 (general control non-derepressible-2).
This kinase is involved in the stress metabolism of cells. It is activated upon starvation (amino acid depletion). Its natural substrate is eIF2a (eukaryotic initiation factor 2 alpha subunit), a translation factor, which gets activated (phosphorylated) by GCN2 in case of an amino acid bottleneck in the cells. This in turn leads to a halt of the protein synthesis. Inhibition of GCN2 results in stopping this mechanism: The cell can not stop protein production upon “starvation” stress.
The assay is run in two steps: the enzymatic reaction and the detection step. In the first step GCN2 is incubated with 10 μM ATP and 80 nM of the GFP-labelled substrate eIF2alpha at room temperature.
The enzymatic reaction is stopped by addition of EDTA. The amount of phosphorylated eIF2alpha is determined by TR-FRET (Lanthascreen): A complex is formed consisting of antibody and GFP labelled phospho-eIF2a, which allows a FRET upon exitation at 340 nm.
Final Concentrations in the Enzymatic Reaction

GCN2, sequence (Q9P2K8 whole entry, species assumed): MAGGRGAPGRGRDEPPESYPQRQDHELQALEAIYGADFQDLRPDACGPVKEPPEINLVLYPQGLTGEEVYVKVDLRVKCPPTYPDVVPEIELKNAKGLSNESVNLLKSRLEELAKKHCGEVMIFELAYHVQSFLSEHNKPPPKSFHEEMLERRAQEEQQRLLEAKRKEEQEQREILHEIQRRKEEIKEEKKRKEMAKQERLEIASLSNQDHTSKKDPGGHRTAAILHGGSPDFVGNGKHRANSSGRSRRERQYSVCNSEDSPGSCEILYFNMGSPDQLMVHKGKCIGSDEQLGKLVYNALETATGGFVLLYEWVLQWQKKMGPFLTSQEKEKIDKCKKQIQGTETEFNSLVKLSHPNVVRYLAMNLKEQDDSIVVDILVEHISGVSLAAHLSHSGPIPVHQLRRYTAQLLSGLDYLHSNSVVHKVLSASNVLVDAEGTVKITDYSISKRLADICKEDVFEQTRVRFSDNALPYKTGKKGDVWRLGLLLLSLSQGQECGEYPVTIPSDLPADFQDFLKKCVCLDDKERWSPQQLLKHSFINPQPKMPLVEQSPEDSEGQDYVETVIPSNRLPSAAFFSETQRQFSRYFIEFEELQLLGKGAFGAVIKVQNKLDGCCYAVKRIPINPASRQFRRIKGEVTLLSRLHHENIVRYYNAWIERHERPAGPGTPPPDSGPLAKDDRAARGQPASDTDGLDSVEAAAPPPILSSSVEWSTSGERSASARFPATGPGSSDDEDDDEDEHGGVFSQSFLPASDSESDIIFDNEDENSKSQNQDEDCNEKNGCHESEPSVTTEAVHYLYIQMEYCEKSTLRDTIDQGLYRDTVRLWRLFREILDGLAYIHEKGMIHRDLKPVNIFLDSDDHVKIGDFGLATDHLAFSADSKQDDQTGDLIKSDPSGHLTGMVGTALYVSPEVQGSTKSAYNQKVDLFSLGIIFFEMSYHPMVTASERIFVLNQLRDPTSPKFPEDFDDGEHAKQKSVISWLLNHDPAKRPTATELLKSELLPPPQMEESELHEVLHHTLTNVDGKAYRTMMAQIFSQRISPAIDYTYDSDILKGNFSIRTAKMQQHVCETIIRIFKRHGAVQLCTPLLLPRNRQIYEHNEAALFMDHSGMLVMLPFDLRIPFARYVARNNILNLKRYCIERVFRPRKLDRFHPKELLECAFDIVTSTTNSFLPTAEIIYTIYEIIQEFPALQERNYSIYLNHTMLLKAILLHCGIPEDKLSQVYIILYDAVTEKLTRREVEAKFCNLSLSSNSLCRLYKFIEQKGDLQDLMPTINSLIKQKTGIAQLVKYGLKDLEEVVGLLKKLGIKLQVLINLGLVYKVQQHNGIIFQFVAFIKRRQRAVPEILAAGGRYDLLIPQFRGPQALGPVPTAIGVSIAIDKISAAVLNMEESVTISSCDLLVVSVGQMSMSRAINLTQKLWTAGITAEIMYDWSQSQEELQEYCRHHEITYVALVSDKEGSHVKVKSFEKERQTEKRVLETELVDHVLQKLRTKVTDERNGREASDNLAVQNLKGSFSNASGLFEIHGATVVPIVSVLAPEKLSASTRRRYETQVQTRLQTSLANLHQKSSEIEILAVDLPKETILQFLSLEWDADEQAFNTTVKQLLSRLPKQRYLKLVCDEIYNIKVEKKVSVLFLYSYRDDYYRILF

Row | IC50 [nM] | SMILES
1 | < 1000 | COc1ccc(-n2nnc3cnc(N[C@H]4CC[C@@H](O)CC4)nc32)cc1 [A26, cis-4-[3-(4-methoxy-phenyl)-3H-[1,2,3]triazolo[4,5-d]pyrimidin-5-ylamino]-cyclohexanol]
2 | < 1000 | COc1ccc(-n2nnc3cnc(N[C@H]4CCOC4)nc32)cc1 [A28, [3-(4-methoxy-phenyl)-3H-[1,2,3]triazolo[4,5-d]pyrimidin-5-yl]-(S)-tetrahydrofuran-3-yl-amine]
3 | < 1000 | COc1ccc(-n2nnc3cnc(N[C@H]4C[C@@H](NC(=O)OC(C)(C)C)C4)nc32)cc1 [A30, {cis-3-[3-(4-methoxy-phenyl)-3H-[1,2,3]triazolo[4,5-d]pyrimidin-5-ylamino]-cyclobutyl}-carbamic acid tert-butyl ester]
4 | 1000 to 5000 | COc1ccc(-n2nnc3cnc(N[C@H]4C[C@@H](N)C4)nc32)cc1 [A31, cis-N-[3-(4-methoxy-phenyl)-3H-[1,2,3]triazolo[4,5-d]pyrimidin-5-yl]-cyclobutane-1,3-diamine hydrochloride]
5 | < 1000 | COc1ccc(-n2nnc3cnc(N[C@H]4C[C@H](NC(=O)OC(C)(C)C)C4)nc32)cc1 [A32, {trans-3-[3-(4-methoxy-phenyl)-3H-[1,2,3]triazolo[4,5-d]pyrimidin-5-ylamino]-cyclobutyl}-carbamic acid tert-butyl ester]
6 | 1000 to 5000 | COc1ccc(-n2nnc3cnc(N[C@H]4CC[C@H](CNC(=O)OC(C)(C)C)CC4)nc32)cc1 [A33, {4-[3-(4-methoxy-phenyl)-3H-[1,2,3]triazolo[4,5-d]pyrimidin-5-ylamino]-cyclohexylmethyl}-carbamic acid tert-butyl ester]
7 | < 1000 | COc1ccc(-n2nnc3cnc(NC4CCN(C(=O)OC(C)(C)C)CC4)nc32)cc1 [A34, 4-[3-(4-methoxy-phenyl)-3H-[1,2,3]triazolo[4,5-d]pyrimidin-5-ylamino]-piperidine-1-carboxylic acid tert-butyl ester]
8 | 5000 to 10000 | COc1ccc(-n2nnc3cnc(NC4C5CNCC54)nc32)cc1 (centres unmarked) [A37, (3-aza-bicyclo[3.1.0]hex-6-yl)-[3-(4-methoxy-phenyl)-3H-[1,2,3]triazolo[4,5-d]pyrimidin-5-yl]-amine hydrochloride]
9 | < 1000 | COc1ccc(-n2nnc3cnc(NC4CCNCC4)nc32)cc1 [A40, [3-(4-methoxy-phenyl)-3H-[1,2,3]triazolo[4,5-d]pyrimidin-5-yl]-piperidin-4-yl-amine hydrochloride]
10 | < 1000 | COc1ccc(-n2nnc3cnc(NC4CCCN(C(C)=O)C4)nc32)cc1 (centres unmarked) [A42, 1-{3-[3-(4-methoxy-phenyl)-3H-[1,2,3]triazolo[4,5-d]pyrimidin-5-ylamino]-piperidin-1-yl}-ethanone]
11 | 1000 to 5000 | COc1ccc(-n2nnc3cnc(NC4CCCNC4)nc32)cc1 (centres unmarked) [A43, [3-(4-methoxy-phenyl)-3H-[1,2,3]triazolo[4,5-d]pyrimidin-5-yl]-piperidin-3-yl-amine hydrochloride]
12 | < 1000 | O=C(O)CCOc1ccc(-n2nnc3cnc(NCCCn4cc([N+](=O)[O-])cn4)nc32)cc1 [A46, 3-(4-{5-[3-(4-nitro-pyrazol-1-yl)-propylamino]-[1,2,3]triazolo[4,5-d]-pyrimidin-3-yl}-phenoxy)-propionic acid]
13 | < 1000 | Nc1cnn(CCCNc2ncc3nnn(-c4ccc(OCCC(=O)O)cc4)c3n2)c1 [A47, 3-(4-{5-[3-(4-amino-pyrazol-1-yl)-propylamino]-[1,2,3]triazolo[4,5-d]pyrimidin-3-yl}-phenoxy)-propionic acid]
14 | < 1000 | COc1ccc(-n2nnc3cnc(NC4CCN(C(=O)CN(C)C)CC4)nc32)cc1 [A48, 2-dimethylamino-1-{4-[3-(4-methoxy-phenyl)-3H-[1,2,3]triazolo-[4,5-d]pyrimidin-5-ylamino]-piperidin-1-yl}-ethanone]
15 | 1000 to 5000 | COc1ccc(-n2nnc3cnc(NCCN4CCN(C)CC4)nc32)cc1 [A50, [3-(4-methoxy-phenyl)-3H-[1,2,3]triazolo[4,5-d]pyrimidin-5-yl]-[2-(4-methyl-piperazin-1-yl)-ethyl]-amine]
16 | < 1000 | N[C@H]1CC[C@H](Nc2ncc3nnn(-c4ccc(I)cc4)c3n2)CC1 [A53, N-[3-(4-iodo-phenyl)-3H-[1,2,3]triazolo[4,5-d]pyrimidin-5-yl]-cyclohexane-1,4-diamine]
17 | < 1000 | CCn1cc(-c2ccc(-n3nnc4cnc(N[C@H]5CC[C@H](N)CC5)nc43)cc2)cn1 [A54, N-{3-[4-(1-ethyl-1H-pyrazol-4-yl)-phenyl]-3H-[1,2,3]triazolo[4,5-d]pyrimidin-5-yl}-(trans)-cyclohexane-1,4-diamine trifluoroacetate]
18 | 5000 to 10000 | COc1ccc(-n2nnc3cnc(NCCCN4CCCC4)nc32)cc1 [A61, [3-(4-methoxy-phenyl)-3H-[1,2,3]triazolo[4,5-d]pyrimidin-5-yl]-(3-pyrrolidin-1-yl-propyl)-amine]

Row | IC50 [nM] | SMILES
19 | 1000 to 5000 | COc1ccc(-n2nnc3cnc(NC4CN(C(=O)CN(C)C)C4)nc32)cc1 [A62, 2-dimethylamino-1-{3-[3-(4-methoxy-phenyl)-3H-[1,2,3]triazolo[4,5-d]pyrimidin-5-ylamino]-azetidin-1-yl}-ethanone]
20 | < 1000 | COc1ccc(-n2nnc3cnc(NC4CN(C(=O)CCN(C)C)C4)nc32)cc1 [A63, 3-dimethylamino-1-{3-[3-(4-methoxy-phenyl)-3H-[1,2,3]triazolo[4,5-d]pyrimidin-5-ylamino]-azetidin-1-yl}-propan-1-one]
21 | 1000 to 5000 | COc1ccc(-n2nnc3cnc(N[C@@H]4CCN(C(=O)OC(C)(C)C)C4)nc32)cc1 [A65, (R)-3-[3-(4-methoxy-phenyl)-3H-[1,2,3]triazolo[4,5-d]pyrimidin-5-ylamino]-pyrrolidine-1-carboxylic acid tert-butyl ester]
22 | 5000 to 10000 | COc1ccc(-n2nnc3cnc(N[C@H]4CCN(C(=O)OC(C)(C)C)C4)nc32)cc1 [A66, (S)-3-[3-(4-methoxy-phenyl)-3H-[1,2,3]triazolo[4,5-d]pyrimidin-5-ylamino]-pyrrolidine-1-carboxylic acid tert-butyl ester]
23 | < 1000 | COCCOc1ccc(-n2nnc3cnc(NCCCc4ccccn4)nc32)cc1 [A68, {3-[4-(2-methoxy-ethoxy)-phenyl]-3H-[1,2,3]triazolo[4,5-d]pyrimidin-5-yl}-(3-pyridin-2-yl-propyl)-amine]
24 | 1000 to 5000 | COc1ccc(-n2nnc3cnc(N[C@@H]4CCNC4)nc32)cc1 [A69, [3-(4-methoxy-phenyl)-3H-[1,2,3]triazolo[4,5-d]pyrimidin-5-yl]-(R)-pyrrolidin-3-yl-amine hydrochloride]
25 | < 1000 | N[C@H]1CC[C@H](Nc2ncc3nnn(-c4ccc(N5CCCC5=O)cc4)c3n2)CC1 [A71, 1-{4-[5-((trans)-4-amino-cyclohexylamino)-[1,2,3]triazolo[4,5-d]pyrimidin-3-yl]-phenyl}-pyrrolidin-2-one]
26 | < 1000 | COc1ccc(-n2nnc3cnc(N[C@H]4CC[C@H](CCO)CC4)nc32)cc1 [A72, trans-2-{4-[3-(4-methoxy-phenyl)-3H-[1,2,3]triazolo[4,5-d]pyrimidin-5-ylamino]-cyclohexyl}-ethanol]
27 | < 1000 | COc1ccc(-n2nnc3cnc(N[C@H]4CC[C@@H](CCO)CC4)nc32)cc1 [A73, cis-2-{4-[3-(4-methoxy-phenyl)-3H-[1,2,3]triazolo[4,5-d]pyrimidin-5-ylamino]-cyclohexyl}-ethanol]
28 | 1000 to 5000 | COc1ccc(-n2nnc3cnc(NCCOCCN)nc32)cc1 [A74, [2-(2-amino-ethoxy)-ethyl]-[3-(4-methoxy-phenyl)-3H-[1,2,3]triazolo[4,5-d]-pyrimidin-5-yl]-amine formate]
29 | < 1000 | N[C@H]1CC[C@H](Nc2ncc3nnn(-c4ccc(F)cc4)c3n2)CC1 [A75, N-[3-(4-fluoro-phenyl)-3H-[1,2,3]triazolo[4,5-d]pyrimidin-5-yl]-(trans)-cyclohexane-1,4-diamine]
30 | < 1000 | COc1ccc(-n2nnc3cnc(NCCCOCCCN)nc32)cc1 [A76, [3-(3-amino-propoxy)-propyl]-[3-(4-methoxy-phenyl)-3H-[1,2,3]triazolo[4,5-d]pyrimidin-5-yl]-amine formate]
31 | 5000 to 10000 | COc1ccc(-n2nnc3cnc(N[C@H]4CCNC4)nc32)cc1 [A77, [3-(4-methoxy-phenyl)-3H-[1,2,3]triazolo[4,5-d]pyrimidin-5-yl]-(S)-pyrrolidin-3-yl-amine hydrochloride]
32 | 1000 to 5000 | COc1ccc(-n2nnc3cnc(NC4CCN(CCN5CCOCC5)CC4)nc32)cc1 [A78, [3-(4-methoxy-phenyl)-3H-[1,2,3]triazolo[4,5-d]pyrimidin-5-yl]-[1-(2-morpholin-4-yl-ethyl)-piperidin-4-yl]-amine]
33 | < 1000 | COc1ccc(-n2nnc3cnc(N[C@@H]4CC[C@H](C(=O)O)C4)nc32)cc1 [A79, (1S,3R)-3-[3-(4-methoxy-phenyl)-3H-[1,2,3]triazolo[4,5-d]pyrimidin-5-ylamino]-cyclopentanecarboxylic acid]
34 | < 1000 | COc1ccc(-n2nnc3cnc(NC4CCN(c5ccncc5)CC4)nc32)cc1 [A82, [3-(4-methoxy-phenyl)-3H-[1,2,3]triazolo[4,5-d]pyrimidin-5-yl]-(3,4,5,6-tetrahydro-2H-[1,4′]bipyridinyl-4-yl)-amine]
35 | < 1000 | COc1ccc(-n2nnc3cnc(N[C@@H]4CCN(C(=O)CN(C)C)C4)nc32)cc1 [A83, 2-dimethylamino-1-{(R)-3-[3-(4-methoxy-phenyl)-3H-[1,2,3]triazolo[4,5-d]-pyrimidin-5-ylamino]-pyrrolidin-1-yl}-ethanone formate]
